Target: G-protein coupled receptor 84 (Homo sapiens, UniProt Q9NQS5)
Sequence (Q9NQS5 whole entry): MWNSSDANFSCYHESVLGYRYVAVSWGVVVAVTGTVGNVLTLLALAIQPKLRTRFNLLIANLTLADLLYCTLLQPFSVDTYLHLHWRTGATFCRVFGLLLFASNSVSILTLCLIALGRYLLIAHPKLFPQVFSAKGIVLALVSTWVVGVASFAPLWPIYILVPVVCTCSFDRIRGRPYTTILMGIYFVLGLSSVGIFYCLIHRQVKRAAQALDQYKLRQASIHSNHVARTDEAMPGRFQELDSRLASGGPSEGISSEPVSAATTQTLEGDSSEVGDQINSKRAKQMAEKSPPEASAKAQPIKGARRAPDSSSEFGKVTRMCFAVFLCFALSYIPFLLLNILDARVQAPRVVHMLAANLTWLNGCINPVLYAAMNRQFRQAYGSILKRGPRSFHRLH
Description: Antagonist activity at human GPR84 expressed in HEK293 cells co-expressing Galpha16 assessed as inhibition of 6-OAU-induced calcium response

Cc1cc2ccccc2c2c1OP(=O)(O)Oc1c(C)cc3ccccc3c1-2
IC50: > 100 µM
